According to US20220235006A1, “PYRIDINE DERIVATIVES AS TMEM16A MODULATORS FOR USE IN THE TREATMENT OF RESPIRATORY CONDITIONS” (TMEM16A LIMITED, priority 2019, published 2022):

Target: T1, human TMEM16A (TMEM16Aabc variant) (Homo sapiens, UniProt Q5XXA6, DEL476-501)
T1 sequence (Q5XXA6 with tags, fused parts or gaps isoform Q5XXA6-5 DEL539-564): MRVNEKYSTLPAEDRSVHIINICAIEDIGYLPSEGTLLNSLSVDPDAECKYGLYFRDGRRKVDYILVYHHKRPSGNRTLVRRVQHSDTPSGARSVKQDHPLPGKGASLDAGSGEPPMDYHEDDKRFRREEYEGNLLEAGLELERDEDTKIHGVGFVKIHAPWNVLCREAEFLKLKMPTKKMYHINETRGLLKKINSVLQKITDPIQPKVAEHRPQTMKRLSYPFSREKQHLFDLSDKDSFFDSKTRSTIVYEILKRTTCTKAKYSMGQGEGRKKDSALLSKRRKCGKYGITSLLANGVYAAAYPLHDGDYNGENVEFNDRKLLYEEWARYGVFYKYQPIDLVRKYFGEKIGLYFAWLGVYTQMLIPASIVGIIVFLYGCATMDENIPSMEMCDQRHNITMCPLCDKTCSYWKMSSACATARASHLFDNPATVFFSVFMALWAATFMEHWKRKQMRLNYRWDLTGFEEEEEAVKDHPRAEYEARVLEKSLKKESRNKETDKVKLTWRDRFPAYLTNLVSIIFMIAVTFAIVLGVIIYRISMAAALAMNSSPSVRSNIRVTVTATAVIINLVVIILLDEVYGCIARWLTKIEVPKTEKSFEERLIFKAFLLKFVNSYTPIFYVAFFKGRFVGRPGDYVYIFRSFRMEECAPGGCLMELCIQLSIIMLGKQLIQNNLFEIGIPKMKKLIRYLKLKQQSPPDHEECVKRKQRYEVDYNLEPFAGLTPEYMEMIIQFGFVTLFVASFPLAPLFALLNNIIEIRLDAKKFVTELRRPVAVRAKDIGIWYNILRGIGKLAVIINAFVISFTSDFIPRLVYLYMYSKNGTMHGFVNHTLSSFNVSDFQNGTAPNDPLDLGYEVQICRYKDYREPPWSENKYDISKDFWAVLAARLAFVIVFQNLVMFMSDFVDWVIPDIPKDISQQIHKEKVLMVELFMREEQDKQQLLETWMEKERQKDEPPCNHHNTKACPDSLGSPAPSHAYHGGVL
Experiment: Automated whole-cell patch clamp (Qpatch) TMEM16A potentiator assay in recombinant FRT cells
Type: cell-based
Details: for activation at 3.33 µM: percentage increase of baseline TMEM16A current, minimum n = 2, read-out: % Potentiation @ 3.33 uM Avg; for EC50: minimum n = 2
Experimental: Automated Whole-Cell Patch Clamp Assay to Detect TMEM16A Activity in Recombinant Cells
Fisher rat thyroid (FRT) cells stably expressing human TMEM16A (TMEM16Aabc variant; Dr Luis Galietta, Insituto Giannina, Italy) were cultured in T-75 flasks in Hams F-12 media with Coon's modification (Sigma) supplemented with 10% (v/v) foetal bovine serum, penicillin-streptomycin (10,000 U/mL/10000 μg/mL), G-418 (750 μg/mL), L-glutamine (2 mM) and sodium bicarbonate solution (7.5% v/v). At ˜90% confluence cells were harvested for experiments by detachment with a 2:1 (v/v) mixture of Detachin (BMS Biotechnology) and 0.25% (w/v) trypsin-EDTA.
FRT-TMEM16A cells were whole-cell patch clamped using an automated planar patch clamp system (Qpatch, Sophion). Briefly, once high resistance (GOhm) seals were established between the cells and the planar recording array the patch was ruptured using suction pulses to establish the whole-cell recording configuration of the patch clamp technique. The assay employed the following solutions (all reagents Sigma): Intracellular solution (mM): N-methyl-D-glucamine 130, CaCl2 18.2, MgCl2 1, HEPES 10, EGTA 10, BAPTA 20, Mg-ATP 2, pH 7.25, 325 mOsm with sucrose.
Extracellular solution (mM): N-methyl-D-glucamine 130, CaCl2 2, MgCl2 1, HEPES 10, pH 7.3, 320 mOsm with sucrose.
The intracellular solution buffers intracellular calcium at levels required to give ˜20% activation of the maximal TMEM16A mediated current (E020 for calcium ions). Cells were voltage clamped at a holding potential of −70mV and a combined voltage step (to +70 mV)/ramp (−90 my to +90 mV) was applied at 0.05 Hz. After a period of current stabilisation test compounds, solubilised in 100% (v/v) DMSO and subsequently diluted into extracellular solution, were applied to generate a cumulative concentration response curve. Each concentration of test compound was incubated for 5 minutes before addition of the next concentration. After the final concentration was tested a supramaximal concentration of either a known active positive modulator or the TMEM16A inhibitor, CaCCinhA01 (Del La Fuente et al, 2008) was added to define the upper and lower limits of the assay.
Compound activity was quantified by measuring the increase in current upon compound addition and expressing this as a percentage increase of baseline TMEM16A current level.
Peak TMEM16A current at +70 mV was plotted as a function of time over the assay period. Baseline current (IBL) was measured after a period of stabilisation. The increase in current for each compound addition was determined by taking the peak current during the incubation period and subtracting the current from the previous recording period and then expressing this as a percentage of the baseline current (% potentiation). For test compound concentration 1 in FIG. 1 this is:
For each additional concentration tested the increase in current was determined by subtracting the current from the previous incubation period and normalising the baseline value—for test concentration 2 in FIG. 1 this is:
The values for each test concentration were plotted as a cumulative function of concentration eg. for test concentration two this would be the sum of the peak changes measured during concentration one plus concentration two.

| SMILES | activation at 3.33 µM [%] | EC50 [µM] |
| --- | --- | --- |
| O=C(Cc1cc(O)c(C2(CO)CC2)cc1F)Nc1ccnc(C(=O)NC2(C(F)(F)F)CC2)c1 [Example 2.16, 4-[[2-[2-Fluoro-5-hydroxy-4-[1-(hydroxymethyl)cyclopropyl]phenyl]acetyl]amino]-N-[1-(trifluoromethyl)cyclopropyl]pyridine-2-carboxamide] | 227 | 0.076 |
| CC(C)(CO)c1cc(F)c(CC(=O)Nc2ccnc(C(=O)NC3(C(F)(F)F)COC3)c2)cc1O [Example 12.1, 4-[[2-[2-Fluoro-5-hydroxy-4-(2-hydroxy-1,1-dimethyl-ethyl)phenyl]acetyl]amino]-N-[3-(trifluoromethyl)oxetan-3-yl]pyridine-2-carboxamide] | 406 | 0.052 |
| CC(C)(C)NC(=O)c1cc(NC(=O)Cc2cc(O)c(C(C)(C)O)cc2F)ccn1 [Example 7, N-tert-Butyl-4-[[2-[2-fluoro-5-hydroxy-4-(1-hydroxy-1-methyl-ethyl)phenyl]acetyl]amino]pyridine-2-carboxamide] | 83.6 | 0.068 |
| O=C(Cc1cc(O)c(C2(O)CCOCC2)cc1F)Nc1ccnc(C(=O)NC2(C(F)(F)F)CC2)c1 [Example 13, 4-[[2-[2-Fluoro-5-hydroxy-4-(4-hydroxytetrahydropyran-4-yl)phenyl]acetyl]amino]-N-[1-(trifluoromethyl)cyclopropyl]pyridine-2-carboxamide] | 196 | 0.221 |
| N#CC1(c2cc(F)c(CC(=O)Nc3ccnc(C(=O)NC4(C(F)(F)F)CC4)c3)cc2O)CCOCC1 [Example 2.9, 4-[[2-[4-(4-Cyanotetrahydropyran-4-yl)-2-fluoro-5-hydroxy-phenyl]acetyl]amino]-N-[1-(trifluoromethyl)cyclopropyl]pyridine-2-carboxamide] | 295 | 0.149 |
| C#CC(C)(C)NC(=O)c1cc(NC(=O)Cc2cc(O)c(C(C)(C)CO)cc2Cl)ccn1 [Example 15.1, 4-[[2-[2-Chloro-5-hydroxy-4-(2-hydroxy-1,1-dimethyl-ethyl)phenyl]acetyl]amino]-N-(1,1-dimethylprop-2-ynyl)pyridine-2-carboxamide] | 190 | 0.041 |
| CC(C)(O)c1cc(F)c(CC(=O)Nc2ccnc(C(=O)NC3(C(F)(F)F)CC3)c2)c(Cl)c1O [Example 18, 4-[[2-[2-Chloro-6-fluoro-3-hydroxy-4-(1-hydroxy-1-methyl-ethyl)phenyl]acetyl]amino]-N-[1-(trifluoromethyl)cyclopropyl]pyridine-2-carboxamide] | 315 | 0.268 |
| CC1(NC(=O)c2cc(NC(=O)Cc3cc(O)c(C(C)(C)CO)cc3F)ccn2)CCOCC1 [Example 16.1, 4-[[2-[2-Fluoro-5-hydroxy-4-(2-hydroxy-1,1-dimethyl-ethyl)phenyl]acetyl]amino]-N-(4-methyltetrahydropyran-4-yl)pyridine-2-carboxamide] | 214 | 0.181 |
| C#CC(C)(C)NC(=O)c1cc(NC(=O)Cc2cc(O)c(C(C)(C)CO)cc2F)ccn1 [Example 16, N-(1,1-Dimethylprop-2-ynyl)-4-[[2-[2-fluoro-5-hydroxy-4-(2-hydroxy-1,1-dimethyl-ethyl)phenyl]acetyl]amino]pyridine-2-carboxamide] | 74.5 | 0.019 |
| CC(C)(C#N)NC(=O)c1cc(NC(=O)Cc2cc(O)c(C(C)(C)O)cc2F)ccn1 [Example 2.1, N-(1-Cyano-1-methyl-ethyl)-4-[[2-[2-fluoro-5-hydroxy-4-(1-hydroxy-1-methyl-ethyl)phenyl]acetyl]amino]pyridine-2-carboxamide] | 350 | 0.466 |
| CC(C)(CO)c1cc(F)c(CC(=O)Nc2ccnc(C(=O)NC3(C(F)F)CC3)c2)cc1O [Example 15.4, N-[1-(Difluoromethyl)cyclopropyl]-4-[[2-[2-fluoro-5-hydroxy-4-(2-hydroxy-1,1-dimethyl-ethyl)phenyl]acetyl]amino]pyridine-2-carboxamide] | 226 | 0.06 |
| O=C(Cc1cc(O)c(C2(CO)CCOCC2)cc1F)Nc1ccnc(C(=O)NC2(C(F)(F)F)CC2)c1 [Example 2.15, 4-[[2-[2-Fluoro-5-hydroxy-4-[4-(hydroxymethyl)tetrahydropyran-4-yl]phenyl]acetyl]amino]-N-[1-(trifluoromethyl)cyclopropyl]pyridine-2-carboxamide] | 413 | 0.279 |
| CC(O)(c1cc(F)c(CC(=O)Nc2ccnc(C(=O)NC3(C(F)(F)F)CC3)c2)cc1O)C1CC1 (stereo not drawn) [Example 2.8, 4-[[2-[4-(1-Cyclopropyl-1-hydroxy-ethyl)-2-fluoro-5-hydroxy-phenyl]acetyl]amino]-N-[1-(trifluoromethyl)cyclopropyl]pyridine-2-carboxamide] | 302 | 0.077 |
| CC(CO)c1cc(F)c(CC(=O)Nc2ccnc(C(=O)NC3(C)CCOCC3)c2)cc1O (stereo not drawn) [Example 16.3, 4-[[2-[2-Fluoro-5-hydroxy-4-(2-hydroxy-1-methyl-ethyl)phenyl]acetyl]amino]-N-(4-methyltetrahydropyran-4-yl)pyridine-2-carboxamide] | 140 | 0.407 |
| CC(C)(CO)NC(=O)c1cc(NC(=O)Cc2cc(O)c(C(C)(C)CO)cc2F)ccn1 [Example 12.3, 4-[[2-[2-Fluoro-5-hydroxy-4-(2-hydroxy-1,1-dimethyl-ethyl)phenyl]acetyl]amino]-N-(2-hydroxy-1,1-dimethyl-ethyl)pyridine-2-carboxamide] | 97.2 | 0.238 |
| CC(CO)c1cc(F)c(CC(=O)Nc2ccnc(C(=O)NC3(C(F)(F)F)CC3)c2)cc1O (stereo not drawn) [Example 20, 4-[[2-[2-Fluoro-5-hydroxy-4-(2-hydroxy-1-methyl-ethyl)phenyl]acetyl]amino]-N-[1-(trifluoromethyl)cyclopropyl]pyridine-2-carboxamide] | 295 | 0.1 |
| Cc1cc(C(C)(C)O)c(O)cc1CC(=O)Nc1ccnc(C(=O)NC2(C(F)(F)F)CC2)c1 [Example 2.12, 4-[[2-[5-Hydroxy-4-(1-hydroxy-1-methyl-ethyl)-2-methyl-phenyl]acetyl]amino]-N-[1-(trifluoromethyl)cyclopropyl]pyridine-2-carboxamide] | 209 | 0.042 |
| CC(C#N)(CO)NC(=O)c1cc(NC(=O)Cc2cc(O)c(C(C)(C)C)cc2F)ccn1 (stereo not drawn) [Example 1.6] | 121 | 0.04 |
